What was measured:
Assay type in all cases: cell-based
HepG2 = experiment: Cell proliferation assay (MTT); conditions: Homo sapiens, 48 h, mean ± SEM of three independent experiments, read-out: Cancer cell proliferation IC50 HepG2
Procedure: (§1) Hepatocellular carcinoma cell lines (HepG2, Huh7), human pancreatic ductal epithelial cell line (H6c7), and normal human colon cell line (CCD841) were obtained from the American Type Culture Collection (ATCC) (Manassas, VA, USA). Cells were cultured in DMEM/High Glucose media (Hep3B, Huh7, CCD841) or MEM/EBSS media (HepG2) containing 10% FBS, 100 IU/ml of penicillin and 100 µg/ml of streptomycin. H6c7 cells were cultured in keratinocyte serum free media supplemented with epidermal growth factor and bovine pituitary extract. Cells were maintained in 5% CO2 humidified atmosphere at 37 °C.
(§2) Cells were seeded in a 96-well plate and allowed to adhere for 24 h. The cells were serum starved in 1% serum containing medium for 12 h, and then treated with drugs in 10% serum-containing medium. After incubation for 48 h, cell proliferation was measured using MTT assay. Optical density was measured at 540 nm using a Spectrostar Nano microplate reader (BMG LABTECH GmbH, Ortenberg, Germany).

Hep3B = experiment: Cell proliferation assay (MTT); conditions: Homo sapiens, 48 h, mean ± SEM of three independent experiments, read-out: Cancer cell proliferation IC50 Hep3B
Procedure: as §1, §2

Huh7 = experiment: Cell proliferation assay (MTT); conditions: Homo sapiens, Huh-7, 48 h, mean ± SEM of three independent experiments, read-out: Cancer cell proliferation IC50 Huh7
Procedure: as §1, §2

Huh7 cells = experiment: Sphere formation assay; conditions: Homo sapiens, Huh-7, 48 h drug treatment, 13 days culture, read-out: % Inhibition of sphere forming Huh7
Procedure: Sphere forming ability of Hep3B and Huh7 cells were examined after incubation with drugs for 48 h. Briefly, 3 × 10^3 cells which were pre-treated with or without drugs in prEGM media (Lonza, Basel, Switzerland) were seeded on an ultra-low adhering 24 well plate (Corning Incorporated Costar, Corning, NY). Twice a week, 500 µL of used medium was replaced with fresh prEGM media. At 13 days after plating, images of spheres were captured using Celloger Mini (Curiosis Inc., Seoul, South Korea). The number of spheroids over 50 µm in diameter was counted by using Image J software (National Institute of Health, Bethesda, MD).

SMILES: CNC(=O)c1cc(Oc2c(C)nc(NC(=O)Nc3ccc(Cl)c(C(F)(F)F)c3)c(C)c2C)ccn1 [Compound 4, 4-((6–(3-(4-Chloro-3-(trifluoromethyl)phenyl)ureido)-2,4,5-trimethylpyridin-3-yl)oxy)-N-methylpicolinamide]
- IC50 (HepG2): 6.98 ± 0.08 µM
- IC50 (Hep3B): 6.23 ± 0.07 µM
- IC50 (Huh7): 5.29 ± 0.11 µM
- inhibition at 1 µM (Huh7 cells; 1 μM): 31.6%
- inhibition at 10 µM (Huh7 cells; 10 μM): 50.5%
